In article PMC11259170, “Small-molecule probe for IBD risk variant GPR65 I231L alters cytokine signaling networks through positive allosteric modulation” (Science Advances, 2024):

Tested on: GPR65 WT BMDCs
Test: RNA sequencing of BMDCs, GPR65 WT
Type: cell-based, mouse
Description: BMDCs were differentiated from bone marrow from in Dulbecco’s modified Eagle’s medium (DMEM) [10% heat-inactivated fetal bovine serum (FBS), 1X GlutaMAX, 1% penicillin-streptomycin] containing recombinant murine granulocyte-macrophage colony-stimulating factor (rmGM-CSF) (20 ng/ml; Peprotech, 315-03) for 7 days, supplemented with additional DMEM + rmGM-CSF on day 3. Cells were then scraped and seeded at 1 × 10^5 cells per well in a 96-well microplate and allowed to adhere overnight.
Different media were prepared on the basis of target pH. pH 6.6: DMEM [10% FBS, 1% penicillin/streptomycin (p/s), 20 mM BES (MilliporeSigma, B4554), 1X Glutamax (Gibco, 35050061), 3.75 mM sodium bicarbonate, and 41.25 mM NaCl]. pH 7.2: DMEM (10% FBS, 1% p/s, 20 mM BES, 1X Glutamax, 7.5 mM sodium bicarbonate, and 36.5 mM NaCl). pH 7.6: DMEM 10% FBS, 1% p/s, 20 mM BES, 1X Glutamax, and 44 mM sodium bicarbonate. Media was allowed to equilibrate overnight at 37°C, 5% CO2 in a vented conical tube, and then adjusted to desired pH immediately before the stimulation using 1 M NaOH.
BMDCs were stimulated with different compounds and pH conditions while simultaneously challenged with zymosan (5 μg/ml; Invivogen, tlrl-zyn) for 2 hours. The treatment conditions were as follows: (i) pH 7.2 + DMSO, (ii) pH 7.2 + 20 μM BRD5075, (iii) pH 7.6 + DMSO, and (iv) pH 7.6 + 5 μM PGE2 (Tocris, 2296). Cells were lysed with a lysis/binding buffer (Invitrogen, A33562).
Libraries were prepared using a modified SmartSeq2 protocol. RNA lysates were purified with Dynabeads mRNA Direct Purification kit (Life Technologies, 61011), followed by reverse transcription with Maxima Reverse Transcriptase (Thermo Fisher Scientific, EP0742) and whole transcription amplification (WTA) with KAPA HotStart HiFi 2x ReadyMix (Kapa Biosystems, KK2601). WTA products were purified with Ampure XP beads (Beckman Coulter, A63880). RNA sequencing libraries were constructed using Nextera XT DNA Library Preparation kit (Illumina, FC-131-1096). Samples were purified with Ampure XP, pooled in equal quantities, then run on 2% E-gel EX (Invitrogen, G402022). Extracted library from ~250 to 800 bps with gel extraction kit (Zymo Research, D4008). The libraries were sequenced on an Illumina NextSeq 500 instrument with NextSeq 500/550 High Output v2 kit (Illumina, 20024906) and the following parameters: paired End: Index1 8, Index2 8, Read1 38, Read 2 38.
BCL files were converted to fastq using Bcl2Fastq. Fastq reads were aligned to the mouse reference genome mm10 using the STAR aligner ([55]), and counts assigned to genes using the RSEM package ([56]). The R/Bioconductor package DESeq2 ([57]) was used to identify differentially expressed (DE) genes. The data were not normalized or pre-processed in any way, as DESeq2 expects raw un-normalized counts as input. Genes with a Benjamini and Hochberg–corrected P value < 0.1 were considered statistically significant.

[1] = WT BMDCs, BRD5075 vs DMSO, pH 7.2

Cc1ccc(NC(=O)c2cnn3c(O)cc(-c4ccc(COC(C)C)cc4)nc23)nc1 [BRD5075, O=C(NC1=NC=C(C)C=C1)C2=C3N(N=C2)C(O)=CC(C4=CC=C(COC(C)C)C=C4)=N3]
Fos expression (20 μM vs DMSO, pH 7.2): up-regulated
Socs3 and Cish expression (20 μM vs DMSO, pH 7.2): down-regulated
Tnfrsf9, Tnfrsf26 and Tnfaip8 expression (20 μM vs DMSO, pH 7.2): down-regulated
expression of inflammatory cytokine (Il12b, Il1b, Tnf) and chemokine (Ccl7, Ccl2, Ccl22, Cxcl1, Cxcl2, Cxcl3) genes (20 μM vs DMSO, pH 7.2): down-regulated
Mt1 and Mt2 expression (20 μM vs DMSO, pH 7.2, zymosan, 2 hours): up-regulated
log2FoldChange Acod1 [1]: -0.8043
log2FoldChange Ahnak [1]: -0.3498
log2FoldChange Bcl2a1a [1]: -0.4699
log2FoldChange Bcl2a1b [1]: -0.2827
log2FoldChange Bcl2a1d [1]: -0.38
log2FoldChange Btg1 [1]: -0.3947
log2FoldChange Cacnb3 [1]: -0.5998
log2FoldChange Cap1 [1]: -0.3862
log2FoldChange Car2 [1]: -0.6566
log2FoldChange Ccl2 [1]: -0.6388
log2FoldChange Ccl5 [1]: -0.8152
log2FoldChange Ccl7 [1]: -1.049
log2FoldChange Ccl22 [1]: -0.5298
log2FoldChange Ccr7 [1]: -0.5607
log2FoldChange Ccrl2 [1]: -0.6903
log2FoldChange Cd14 [1]: -0.4004
log2FoldChange Cd86 [1]: -0.6053
log2FoldChange Cdc37 [1]: -0.5925
log2FoldChange Cdc42ep2 [1]: -0.4809
log2FoldChange Cebpb [1]: -0.9437
log2FoldChange Cflar [1]: -0.6547
log2FoldChange Cish [1]: -0.8764
log2FoldChange Clec4e [1]: -0.6037
log2FoldChange Coro1a [1]: -0.3668
log2FoldChange Cxcl1 [1]: -0.8744
log2FoldChange Cxcl2 [1]: -0.4995
log2FoldChange Cxcl3 [1]: -0.5082
log2FoldChange Cytip [1]: -0.4125
log2FoldChange Ddx5 [1]: -0.3311
log2FoldChange Ehd1 [1]: -0.3665
log2FoldChange Eif1a [1]: -0.4662
log2FoldChange Fam177a [1]: -0.5633
log2FoldChange Flrt3 [1]: -0.6822
log2FoldChange Fos [1]: 0.7626
log2FoldChange Fscn1 [1]: -1.127
log2FoldChange Gem [1]: -0.7493
log2FoldChange Ghitm [1]: -0.3657
log2FoldChange Gpr84 [1]: -0.6049
log2FoldChange H2-Ab1 [1]: -0.3044
log2FoldChange H2-D1 [1]: -0.3663
log2FoldChange H2-K1 [1]: -0.4443
log2FoldChange H2-Q4 [1]: -0.9033
log2FoldChange H2-Q6 [1]: -0.6888
log2FoldChange H2-Q7 [1]: -0.7384
log2FoldChange Hivep3 [1]: -0.8888
log2FoldChange Hnrnpab [1]: -0.4744
log2FoldChange Ier3 [1]: -0.643
log2FoldChange Ifitm1 [1]: -0.5428
log2FoldChange Ifitm3 [1]: -0.5054
log2FoldChange Il1b [1]: -1.038
log2FoldChange Il1rn [1]: -0.3871
log2FoldChange Il12b [1]: -0.7451
log2FoldChange Inhba [1]: -0.8833
log2FoldChange Irf8 [1]: -0.5092
log2FoldChange Lrrc58 [1]: -0.5089
log2FoldChange Malt1 [1]: -0.6085
log2FoldChange Marcksl1 [1]: -0.8077
log2FoldChange Myo9b [1]: -0.609
log2FoldChange Nfe2l2 [1]: -0.3368
log2FoldChange Nfkb2 [1]: -0.6827
log2FoldChange Nfkbia [1]: -0.3317
log2FoldChange Nfkbid [1]: -0.8151
log2FoldChange Nfkbie [1]: -0.5542
log2FoldChange Pde4b [1]: -0.698
log2FoldChange Plau [1]: -0.5236
log2FoldChange Plek [1]: -0.4983
log2FoldChange Ptafr [1]: -0.4512
log2FoldChange Ptgs2 [1]: -0.6129
log2FoldChange Ptpn6 [1]: -0.3496
log2FoldChange Rasgef1b [1]: -0.4887
log2FoldChange Rgs1 [1]: -0.3869
log2FoldChange Rps28 [1]: 0.3044
log2FoldChange Rsad2 [1]: -0.6161
log2FoldChange S100a8 [1]: -0.9378
log2FoldChange S100a9 [1]: -1.055
log2FoldChange Samsn1 [1]: -0.5214
log2FoldChange Sat1 [1]: -0.2878
log2FoldChange Sel1l [1]: -0.4914
log2FoldChange Sh3bgrl [1]: -0.3277
log2FoldChange Slc3a2 [1]: -0.6173
log2FoldChange Slc7a11 [1]: -0.4778
log2FoldChange Slfn2 [1]: -0.3087
log2FoldChange Socs3 [1]: -0.448
log2FoldChange Sqstm1 [1]: -0.4417
log2FoldChange Srgn [1]: -0.3315
log2FoldChange Stub1 [1]: -0.4634
log2FoldChange Syngr2 [1]: -0.3646
log2FoldChange Tfec [1]: -0.8287
log2FoldChange Tlr2 [1]: -0.455
log2FoldChange Tmem123 [1]: -0.5279
log2FoldChange Tmsb10 [1]: 0.5333
log2FoldChange Tnf [1]: -0.4212
log2FoldChange Tnfaip8 [1]: -0.4539
log2FoldChange Tnfrsf9 [1]: -0.6055
log2FoldChange Tnfrsf26 [1]: -0.4775
log2FoldChange Tnip3 [1]: -0.5262
log2FoldChange Ybx1 [1]: -0.4889
log2FoldChange mt-Atp8 [1]: 0.4788
